One compound from ChEMBL document CHEMBL4680302, “Biologic-like In Vivo Efficacy with Small Molecule Inhibitors of TNFα Identified Using Scaffold Hopping and Structure-Based Drug Design Approaches” (J Med Chem, 2020) can be followed below.

Structures are written as SMILES. In brackets after ≈: the same amount, converted by molar mass.

One series has as its target T1, Cytochrome P450 1A2 (Homo sapiens, UniProt P05177).
T1 sequence (P05177 whole entry): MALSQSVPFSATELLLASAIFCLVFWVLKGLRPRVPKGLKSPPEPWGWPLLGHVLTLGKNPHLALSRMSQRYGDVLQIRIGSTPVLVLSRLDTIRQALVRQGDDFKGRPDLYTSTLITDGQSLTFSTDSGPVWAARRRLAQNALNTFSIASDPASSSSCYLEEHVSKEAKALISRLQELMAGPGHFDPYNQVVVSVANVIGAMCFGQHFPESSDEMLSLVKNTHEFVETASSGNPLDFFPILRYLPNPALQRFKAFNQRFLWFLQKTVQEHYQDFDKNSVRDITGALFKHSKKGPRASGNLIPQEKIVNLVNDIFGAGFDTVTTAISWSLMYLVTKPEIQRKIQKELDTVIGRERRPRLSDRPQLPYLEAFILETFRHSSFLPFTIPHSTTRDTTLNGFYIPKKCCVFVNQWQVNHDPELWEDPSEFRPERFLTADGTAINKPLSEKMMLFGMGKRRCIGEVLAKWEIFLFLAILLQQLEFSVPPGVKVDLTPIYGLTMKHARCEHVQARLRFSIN
The experiment in a line: Inhibition of recombinant CYP1A2 (unknown origin). It is filed as ADME.

Series [1] can be described thus: Solubility of compound. It is filed as physicochemical.
For another series, the target named is T2, Cytochrome P450 2C8 (Homo sapiens, UniProt P10632).
T2 sequence (P10632 whole entry): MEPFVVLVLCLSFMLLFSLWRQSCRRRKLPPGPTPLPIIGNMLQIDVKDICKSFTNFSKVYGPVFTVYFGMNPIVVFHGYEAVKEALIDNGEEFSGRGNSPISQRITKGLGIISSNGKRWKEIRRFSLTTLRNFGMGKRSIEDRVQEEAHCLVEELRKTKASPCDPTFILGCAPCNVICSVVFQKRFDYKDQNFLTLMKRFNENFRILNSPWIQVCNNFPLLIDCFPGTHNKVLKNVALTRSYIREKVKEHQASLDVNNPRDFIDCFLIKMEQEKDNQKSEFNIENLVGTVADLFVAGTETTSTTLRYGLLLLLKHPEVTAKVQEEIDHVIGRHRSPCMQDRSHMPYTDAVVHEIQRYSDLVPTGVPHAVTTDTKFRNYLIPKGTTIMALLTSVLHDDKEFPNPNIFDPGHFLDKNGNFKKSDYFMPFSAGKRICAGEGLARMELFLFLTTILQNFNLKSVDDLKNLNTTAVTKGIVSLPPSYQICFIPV
The series can be described thus: Inhibition of recombinant CYP2C8 (unknown origin). The format is ADME.

A further series concerns the target Tumor necrosis factor (Homo sapiens, UniProt P01375). The experiment in a line: Inhibition of human recombinant His-tagged TNF-alpha-mediated E-selectin expression in HUVEC cells preincubated for 30 mins in presence of TNFalpha and measured after 3 hrs by flow cytometry analysis. The format is cell-based.
Series [2] addresses T3, Tumor necrosis factor receptor superfamily member 1A (Homo sapiens) (UniProt P19438).
T3 sequence (whole entry): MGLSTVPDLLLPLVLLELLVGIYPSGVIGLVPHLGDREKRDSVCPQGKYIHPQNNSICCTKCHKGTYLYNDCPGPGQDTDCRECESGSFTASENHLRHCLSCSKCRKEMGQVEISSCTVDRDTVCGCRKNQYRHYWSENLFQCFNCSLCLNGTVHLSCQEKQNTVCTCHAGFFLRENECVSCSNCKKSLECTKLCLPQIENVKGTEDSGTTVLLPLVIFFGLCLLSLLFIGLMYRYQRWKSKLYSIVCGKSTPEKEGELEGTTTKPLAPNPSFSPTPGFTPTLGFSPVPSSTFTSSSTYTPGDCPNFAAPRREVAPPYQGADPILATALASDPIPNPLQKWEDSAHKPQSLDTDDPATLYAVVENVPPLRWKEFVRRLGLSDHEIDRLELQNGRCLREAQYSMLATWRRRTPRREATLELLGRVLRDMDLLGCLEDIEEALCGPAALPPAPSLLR
The experiment in a line: Binding affinity to TNFR1 (unknown origin) assessed as sedimentation coefficient (S) value at 25 uM in presence of human TNFalpha by ultracentrifugation analysis (reference value: 2.2).

Series [3] addresses T3, Tumor necrosis factor receptor superfamily member 1A (Homo sapiens). The experiment in a line: Binding affinity to TNFR1 (unknown origin) assessed as apparent molecular weight of protein at 25 uM by ultracentrifugation analysis (reference value: 27 kDa).
Series [4] has as its system Mus musculus. The experiment in a line: Antiarthritic activity against anticollagen antibody-induced arthritis BALB/c mouse model assessed as reduction in LPS-induced IL-6 production administered orally twice daily followed by LPS stimulation after 6 hrs measured on day 12 by RT-PCR analysis. It is filed as functional, organism-based. The following applies: dose 2-10 mg/kg, time 12.0 day.

In series [5] the test system is Mus musculus. The experiment in a line: Antiarthritic activity against anticollagen antibody-induced arthritis BALB/c mouse model assessed as reduction in LPS-induced IL-1beta production administered orally twice daily followed by LPS stimulation after 6 hrs measured on day 12 by RT-PCR analysis. The format is functional, organism-based. The following applies: dose 2-10 mg/kg, time 12.0 day.

The nature of series [6]: Selectivity ratio of drug exposure in TNFalpha-induced C57BL/6J mouse at 25 mg/kg, po at 3 hrs post dose to IC50 for inhibition of human TNFalpha expressed in HEK-Blue-CD40L cells assessed as inhibition of NFkappaB activation by quanti-blue based SEAP assay.
In series [7] the target is Voltage-gated inwardly rectifying potassium channel KCNH2 (Homo sapiens, UniProt Q12809). The experiment in a line: Inhibition of human ERG by patch clamp assay.
Series [8] in a line: Drug exposure in TNFalpha-induced C57BL/6J mouse at 5 mg/kg, po pretreated with compound prior to 1 hr of TNFalpha challenge and measured at 3 hrs post dose. The format is ADME, organism-based. Conditions: in vivo, read-out: Drug uptake.
The nature of series [9]: Total AUC in mouse at 2 mg/kg, po. Also on record: time AUCmax, route oral, dose 2 mg/kg. It is filed as ADME, organism-based. Conditions: in vivo.
The nature of series [10]: Permeability of the compound across basolateral to apical side of membrane in human Caco-2 cells. The format is ADME, cell-based. Conditions: read-out: permeability.
Series [11] in a line: Protein binding in rat assessed as unbound fraction. It is filed as ADME.
Series [12] deals with Mus musculus. The experiment in a line: Antiarthritic activity against anticollagen antibody-induced arthritis BALB/c mouse model assessed as reduction in paw inflammation administered orally twice a day followed by LPS stimulation after 6 hrs measured until day 12. It is filed as functional, organism-based. The following applies: dose 2-10 mg/kg, time 12.0 day.
A short description of series [13]: Metabolic stability in rat liver microsomes assessed as half-life. It is filed as ADME, Microsome.
Series [14] is described as follows: Selectivity ratio of drug exposure in anticollagen antibody-induced arthritis BALB/c mouse model at 2 mg/kg, po BID for 12 days to IC50 for inhibition of human TNFalpha expressed in HEK-Blue-CD40L cells assessed as inhibition of NFkappaB activation by quanti-blue based SEAP assay.
The subject of series [15] is Mus musculus. The experiment in a line: Antiarthritic activity against anticollagen antibody-induced arthritis BALB/c mouse model assessed as reduction in swelling of digits administered orally twice a day followed by LPS stimulation after 6 hrs measured until day 12. It is filed as functional, organism-based. Conditions: dose 2-10 mg/kg, time 12.0 day.
In series [16] the test system is Mus musculus. The experiment in a line: Antiarthritic activity against anticollagen antibody-induced arthritis BALB/c mouse model assessed as reduction in LPS-induced MCP-1 levels administered orally twice daily followed by LPS stimulation after 6 hrs measured on day 12 by RT-PCR analysis. It is filed as functional, organism-based. Conditions: dose 2-10 mg/kg, time 12.0 day.

For another series, the target named is Cytochrome P450 2D6 (Homo sapiens, UniProt P10635). The series can be described thus: Inhibition of recombinant CYP2D6 (unknown origin). The format is ADME.
A short description of series [17]: Metabolic stability in human liver microsomes assessed as parent compound remaining after 10 mins. The format is ADME, Microsome. The following applies: read-out: Stabilty.

Sequence of Cytochrome P450 2D6 (P10635 whole entry): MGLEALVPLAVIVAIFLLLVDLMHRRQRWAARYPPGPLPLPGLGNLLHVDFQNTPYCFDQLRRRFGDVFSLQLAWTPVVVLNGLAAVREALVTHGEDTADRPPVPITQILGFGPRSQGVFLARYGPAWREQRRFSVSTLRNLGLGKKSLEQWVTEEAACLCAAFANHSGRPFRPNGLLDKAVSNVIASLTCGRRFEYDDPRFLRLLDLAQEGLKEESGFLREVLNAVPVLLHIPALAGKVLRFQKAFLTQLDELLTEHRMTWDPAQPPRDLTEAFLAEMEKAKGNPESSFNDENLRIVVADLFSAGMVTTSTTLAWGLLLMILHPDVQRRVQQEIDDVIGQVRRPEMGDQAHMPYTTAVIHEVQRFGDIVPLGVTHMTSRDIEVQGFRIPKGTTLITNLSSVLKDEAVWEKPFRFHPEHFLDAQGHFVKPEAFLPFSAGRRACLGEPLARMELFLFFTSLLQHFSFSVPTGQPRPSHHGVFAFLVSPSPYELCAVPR
Sequence of Tumor necrosis factor (P01375 whole entry): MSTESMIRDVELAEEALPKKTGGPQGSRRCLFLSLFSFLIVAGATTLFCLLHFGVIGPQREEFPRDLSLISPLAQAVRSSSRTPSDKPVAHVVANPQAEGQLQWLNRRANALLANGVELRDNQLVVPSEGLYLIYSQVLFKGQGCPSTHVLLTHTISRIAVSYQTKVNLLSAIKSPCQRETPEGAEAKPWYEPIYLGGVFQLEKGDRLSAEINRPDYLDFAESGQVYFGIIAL
Sequence of Voltage-gated inwardly rectifying potassium channel KCNH2 (Q12809 whole entry): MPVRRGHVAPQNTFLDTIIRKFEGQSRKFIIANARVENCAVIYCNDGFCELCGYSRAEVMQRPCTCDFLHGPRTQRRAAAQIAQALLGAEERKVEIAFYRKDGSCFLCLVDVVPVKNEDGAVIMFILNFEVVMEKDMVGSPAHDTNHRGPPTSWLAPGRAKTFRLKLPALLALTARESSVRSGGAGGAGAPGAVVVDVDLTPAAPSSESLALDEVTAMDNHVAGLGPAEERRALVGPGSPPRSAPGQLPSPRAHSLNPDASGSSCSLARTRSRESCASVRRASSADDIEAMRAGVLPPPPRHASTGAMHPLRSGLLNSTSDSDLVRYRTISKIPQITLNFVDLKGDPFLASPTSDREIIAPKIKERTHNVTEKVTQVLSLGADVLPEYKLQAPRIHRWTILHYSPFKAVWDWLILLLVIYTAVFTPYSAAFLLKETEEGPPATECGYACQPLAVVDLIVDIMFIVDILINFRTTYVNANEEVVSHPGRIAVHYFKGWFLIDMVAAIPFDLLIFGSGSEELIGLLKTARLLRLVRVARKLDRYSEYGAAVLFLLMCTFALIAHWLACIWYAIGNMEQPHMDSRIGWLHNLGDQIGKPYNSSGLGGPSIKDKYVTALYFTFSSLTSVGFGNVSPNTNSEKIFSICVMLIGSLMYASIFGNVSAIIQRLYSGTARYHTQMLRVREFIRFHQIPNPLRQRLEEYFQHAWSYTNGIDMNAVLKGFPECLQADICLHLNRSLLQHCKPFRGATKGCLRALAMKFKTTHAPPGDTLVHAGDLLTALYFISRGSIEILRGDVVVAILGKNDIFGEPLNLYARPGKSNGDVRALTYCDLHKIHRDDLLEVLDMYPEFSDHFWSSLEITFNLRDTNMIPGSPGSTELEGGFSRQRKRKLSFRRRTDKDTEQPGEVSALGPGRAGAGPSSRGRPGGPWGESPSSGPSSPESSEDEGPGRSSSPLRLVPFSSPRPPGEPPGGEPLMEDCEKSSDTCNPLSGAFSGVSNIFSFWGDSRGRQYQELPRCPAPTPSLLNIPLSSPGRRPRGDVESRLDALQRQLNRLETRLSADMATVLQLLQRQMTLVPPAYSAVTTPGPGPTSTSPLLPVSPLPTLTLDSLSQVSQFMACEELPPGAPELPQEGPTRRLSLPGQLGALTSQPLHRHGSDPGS

Turning to `Cc1nc2cc(F)c(-c3cnc(C(C)(C)O)nc3)nc2c(N[C@H](C)c2cc(C#N)ccc2F)c1Cl`, the IC50 at Cytochrome P450 1A2 was greater than 20 µM; on Cytochrome P450 2C8 it was greater than 6.7 µM; on Tumor necrosis factor it was 0.03 µM; in series [7], 5.6 µM; at Cytochrome P450 2D6, greater than 20 µM. Further, in series [1], the concentration in solution (solubility) was 1 µg/mL (≈ 2.02 µM). In series [2], the Activity index worked out at 2.2. In addition, the Activity in [3] is 27 kDa; in the series on Mus musculus [4], “Dose-dependent effect”; in the series with Mus musculus [5], “Dose-dependent effect”; in the series on Mus musculus [12], “Dose-dependent effect”; in the series with Mus musculus [15], “Dose-dependent effect”; with Mus musculus [16], “Dose-dependent effect”. In addition, in series [6], the Selectivity ratio is reported as 7. In series [8], the concentration at 3 h worked out at 470 nM. In [9], this compound returned an AUC of 5.9 µM·h. In addition, the Papp B→A in series [10] is 8 ×10⁻⁶ cm/s. Besides, the Fu in [11] is 0.4%. In addition, in [13], the half-life worked out at 1.15 h. The Ratio in [14] came out at 1. Also, in series [17], the remaining at 10 min was 95%.
